According to patent US9745360B2 (Sanofi, priority 2012, dated 2017):
In brackets after ≈: the same amount, converted by molar mass. Like-named read-outs stand apart in the source and are kept apart here. *1 amine or outer side, *2 acyl side, *3 side chain or, on linkers, in order; H or OH if unused. Where a SMILES comes first, the peptide text is derived from it. Side-chain parts run from the residue outwards. [ ]: non-standard residue; d: D form. The star is where a group is joined. γGlu = O=C(O)[C@H](CCC(=O)[*:2])N[*:1]; Stearoyl = CCCCCCCCCCCCCCCCCC(=O)*; Palmitoyl = CCCCCCCCCCCCCCCC(=O)*; d(αMeK) = C[C@@](N)(CCCCN)C(=O)O; αMeOrn = C[C@](N)(CCCN)C(=O)O; αMeK = C[C@](N)(CCCCN)C(=O)O; Api = NC1(C(=O)O)CCNCC1; Aib = CC(C)(N)C(=O)O

What was measured:
[1] = molecular target: T1, human GLP-1 receptor (hGLP-1 R) (Homo sapiens, UniProt P43220); test: cAMP response (HTRF) of HEK-293 cells stably expressing human GLP-1 receptor; assay type: cell-based; details: Table 7; cAMP formation
T1 construct: expressed in transfected cells
T1 sequence (P43220 24-463): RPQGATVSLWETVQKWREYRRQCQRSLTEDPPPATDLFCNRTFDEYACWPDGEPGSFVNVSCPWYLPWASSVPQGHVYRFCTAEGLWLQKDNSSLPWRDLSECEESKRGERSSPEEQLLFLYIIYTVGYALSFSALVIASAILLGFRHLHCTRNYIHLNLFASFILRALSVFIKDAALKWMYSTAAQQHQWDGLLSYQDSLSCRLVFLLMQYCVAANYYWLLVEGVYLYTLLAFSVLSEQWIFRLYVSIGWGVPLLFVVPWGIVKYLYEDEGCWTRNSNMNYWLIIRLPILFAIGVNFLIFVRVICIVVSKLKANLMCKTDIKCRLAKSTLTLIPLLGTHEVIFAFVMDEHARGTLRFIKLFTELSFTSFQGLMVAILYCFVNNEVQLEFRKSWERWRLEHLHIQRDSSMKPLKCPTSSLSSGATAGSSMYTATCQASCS
Method: (§1) cAMP content of cells was determined using a kit from Cisbio Corp. (cat. no. 62AM4PEC) based on HTRF (Homogenous Time Resolved Fluorescence). For preparation, cells were split into T175 culture flasks and grown overnight to near confluency in medium (DMEM/10% FBS). Medium was then removed and cells washed with PBS lacking calcium and magnesium, followed by proteinase treatment with accutase (Sigma-Aldrich cat. no. A6964). Detached cells were washed and resuspended in assay buffer (1×HBSS; 20 mM HEPES, 0.1% BSA, 2 mM IBMX) and cellular density determined. They were then diluted to 400000 cells/ml and 25 μl-aliquots dispensed into the wells of 96-well plates. For measurement, 25 μl of test compound in assay buffer was added to the wells, followed by incubation for 30 minutes at room temperature.

[2] = molecular target: T2, human GIP receptor (hGIP R) (Homo sapiens, UniProt P48546); test: cAMP response (HTRF) of HEK-293 cells stably expressing human GIP receptor; assay type: cell-based; details: Table 7; cAMP formation
T2 construct: expressed in transfected cells
T2 sequence (P48546 22-466): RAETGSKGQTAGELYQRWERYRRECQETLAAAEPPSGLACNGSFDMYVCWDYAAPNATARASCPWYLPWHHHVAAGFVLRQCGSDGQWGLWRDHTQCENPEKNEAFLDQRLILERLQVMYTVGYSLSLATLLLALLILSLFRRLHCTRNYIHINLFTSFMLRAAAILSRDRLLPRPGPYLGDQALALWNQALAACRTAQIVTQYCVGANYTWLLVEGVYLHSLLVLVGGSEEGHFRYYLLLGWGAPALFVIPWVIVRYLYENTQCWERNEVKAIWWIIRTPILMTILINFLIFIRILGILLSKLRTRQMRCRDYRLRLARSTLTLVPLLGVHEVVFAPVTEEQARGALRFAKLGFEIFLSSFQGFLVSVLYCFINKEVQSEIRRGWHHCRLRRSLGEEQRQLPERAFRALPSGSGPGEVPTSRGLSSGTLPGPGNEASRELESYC
Method: as §1

[3] = Solubility testing in buffer, HPLC-UV of supernatant; assay type: physicochemical; details: target concentration 1.0 mg/mL; for solubility at 2 h: buffer
Method: (§2) Solubility and chemical stability of peptidic compounds were assessed as described in Methods.

[4] = Chemical stability in solution, 7 days at 25° C., % remaining peptide; assay type: physicochemical; details: % remaining peptide after 7 days at 25° C.
Method: The chemical stability is expressed as “% remaining peptide”.
as §2

[5] = system: non-fasted female diabetic dbdb-mice; test: Glucose lowering in non-fasted female diabetic dbdb-mice; assay type: in vivo; details: 3 μg/kg s.c., at 240 min, kept to 480 min, baseline 20-22 mmol/l
Excerpt: Female diabetic dbdb-mice of mean non-fasted glucose value of 20-22 mmol/l and a body weight of 42 g+/−0.6 g (SEM) were used. Mice were individually marked and were adapted to housing conditions for at least one week.
3-5 days prior to study start mice were assigned to groups and cages (4 mice per cage, 8 per group, control group 16) according to their non-fasted glucose values to ensure even distribution of lower and higher values between groups (stratification). On the study day, mice were weighed and dosed (t=0). Immediately prior to compound administration feed was removed while water remained available, and a first blood sample at a tail incision was drawn (baseline). Further blood samples were drawn at the tail incision at 30, 60, 90, 120, 240, 360, and 480 min.
Statistical analyses are performed with Everstat Version 6.0 based on SAS by 2-way-ANOVA on repeated measures, followed by Dunnett's post-hoc test against vehicle-control. Differences are considered statistically significant at the p<0.05 level.

[6] = pH 4.5, read-out: Solubility (pH 4.5)
[7] = pH 7.4, read-out: Solubility (pH 7.4)

Structure (SMILES) | EC50 [1] | EC50 [2] | Stability (pH 4.5) [4] | Stability (pH 7.4) [4] | other results
CCCCCCCCCCCCCCCCCC(=O)N[C@@H](CCC(=O)NCCCC[C@H](NC(=O)[C@H](CCC(N)=O)NC(=O)[C@@H](NC(=O)[C@H](CO)NC(=O)[C@H](CC(C)C)NC(=O)[C@H](CC(=O)O)NC(=O)[C@H](CO)NC(=O)[C@@H](NC(=O)[C@H](Cc1ccccc1)NC(=O)[C@@H](NC(=O)CNC(=O)[C@H](CCC(=O)O)NC(=O)C(C)(C)NC(=O)[C@@H](N)Cc1ccc(O)cc1)[C@@H](C)O)[C@@H](C)O)[C@@H](C)CC)C(=O)N[C@@H](CC(=O)O)C(=O)N[C@@H](CCC(=O)O)C(=O)N[C@@H](CCCNC(=N)N)C(=O)N[C@@H](C)C(=O)N[C@@H](C)C(=O)N[C@@](C)(CCCCN)C(=O)N[C@@H](CCC(=O)O)C(=O)N[C@@H](Cc1ccccc1)C(=O)N[C@H](C(=O)N[C@@H](CCC(=O)O)C(=O)N[C@@H](Cc1c[nH]c2ccccc12)C(=O)N[C@@H](CC(C)C)C(=O)N[C@@H](CCCCN)C(=O)N[C@@H](CC(N)=O)C(=O)N[C@H](C(=O)NCC(=O)N1CCC[C@H]1C(=O)N[C@@H](CO)C(=O)N[C@@H](CO)C(=O)NCC(=O)N[C@@H](C)C(=O)N1CCC[C@H]1C(=O)N1CCC[C@H]1C(=O)N1CCC[C@H]1C(=O)N[C@@H](CO)C(N)=O)[C@@H](C)O)[C@@H](C)CC)C(=O)O [SEQ ID NO: 14, Y-Aib-E-G-T-F-T-S-D-L-S-I-Q-K(γE-x70)-D-E-R-A-A-(S)MeLys-E-F-I-E-W-L-K-N-T-G-P-S-S-G-A-P-P-P-S-NH2] (H-Y[Aib]EGTFTSDLSIQK([γGlu-Stearoyl])DERAA[αMeK]EFIEWLKNTGPSSGAPPPS-NH2) | 7.2 pM | – | – | – | –
CCCCCCCCCCCCCCCCCC(=O)N[C@@H](CCC(=O)NCCCC[C@H](NC(=O)[C@H](CCC(N)=O)NC(=O)[C@@H](NC(=O)[C@H](CO)NC(=O)[C@H](CC(C)C)NC(=O)[C@H](CC(=O)O)NC(=O)[C@H](CO)NC(=O)[C@@H](NC(=O)[C@H](Cc1ccccc1)NC(=O)[C@@H](NC(=O)CNC(=O)[C@H](CCC(N)=O)NC(=O)C(C)(C)NC(=O)[C@@H](N)Cc1ccc(O)cc1)[C@@H](C)O)[C@@H](C)O)[C@@H](C)CC)C(=O)N[C@@H](CC(=O)O)C(=O)N[C@@H](CCC(=O)O)C(=O)N[C@@H](CCC(N)=O)C(=O)N[C@@H](CCCNC(=N)N)C(=O)N[C@@H](C)C(=O)N[C@](C)(CCCCN)C(=O)N[C@@H](CCC(=O)O)C(=O)N[C@@H](Cc1ccccc1)C(=O)N[C@H](C(=O)N[C@@H](CCC(=O)O)C(=O)N[C@@H](Cc1c[nH]c2ccccc12)C(=O)N[C@@H](CC(C)C)C(=O)N[C@@H](CCCCN)C(=O)N[C@@H](CO)C(=O)NCC(=O)NCC(=O)N1CCC[C@H]1C(=O)N[C@@H](CO)C(=O)N[C@@H](CO)C(=O)NCC(=O)N[C@@H](C)C(=O)N1CCC[C@H]1C(=O)N1CCC[C@H]1C(=O)N1CCC[C@H]1C(=O)N[C@@H](CO)C(N)=O)[C@@H](C)CC)C(=O)O [SEQ ID NO: 13, Y-Aib-Q-G-T-F-T-S-D-L-S-I-Q-K(γE-x70)-D-E-Q-R-A-(R)MeLys-E-F-I-E-W-L-K-S-G-G-P-S-S-G-A-P-P-P-S-NH2] (H-Y[Aib]QGTFTSDLSIQK([γGlu-Stearoyl])DEQRA[d(αMeK)]EFIEWLKSGGPSSGAPPPS-NH2) | 13.6 pM | – | – | – | –
CCCCCCCCCCCCCCCC(=O)N[C@@H](CCC(=O)NCCCC[C@H](NC(=O)[C@H](CCC(N)=O)NC(=O)[C@@H](NC(=O)[C@H](CO)NC(=O)[C@H](CC(C)C)NC(=O)[C@H](CC(=O)O)NC(=O)[C@H](CO)NC(=O)[C@@H](NC(=O)[C@H](Cc1ccccc1)NC(=O)[C@@H](NC(=O)CNC(=O)[C@H](CCC(=O)O)NC(=O)C(C)(C)NC(=O)[C@@H](N)Cc1ccc(O)cc1)[C@@H](C)O)[C@@H](C)O)[C@@H](C)CC)C(=O)N[C@@H](CCC(=O)O)C(=O)N[C@@H](CCC(=O)O)C(=O)N[C@@H](CCCNC(=N)N)C(=O)N[C@@H](C)C(=O)N[C@@H](C)C(=O)N[C@@](C)(CCCN)C(=O)N[C@@H](CCC(=O)O)C(=O)N[C@@H](Cc1ccccc1)C(=O)N[C@H](C(=O)N[C@@H](CCC(=O)O)C(=O)N[C@@H](Cc1c[nH]c2ccccc12)C(=O)N[C@@H](CC(C)C)C(=O)N[C@@H](CCCCN)C(=O)N[C@@H](CC(N)=O)C(=O)N[C@H](C(=O)NCC(=O)N1CCC[C@H]1C(=O)N[C@@H](CO)C(=O)N[C@@H](CO)C(=O)NCC(=O)N[C@@H](C)C(=O)N1CCC[C@H]1C(=O)N1CCC[C@H]1C(=O)N1CCC[C@H]1C(=O)N[C@@H](CO)C(N)=O)[C@@H](C)O)[C@@H](C)CC)C(=O)O [SEQ ID NO: 10, Y-Aib-E-G-T-F-T-S-D-L-S-I-Q-K(γE-x53)-E-E-R-A-A-(S)MeOrn-E-F-I-E-W-L-K-N-T-G-P-S-S-G-A-P-P-P-S-NH2] (H-Y[Aib]EGTFTSDLSIQK([γGlu-Palmitoyl])EERAA[αMeOrn]EFIEWLKNTGPSSGAPPPS-NH2) | 4.9 pM | 7.1 pM | – | – | –
CCCCCCCCCCCCCCCC(=O)N[C@@H](CCC(=O)NCCCC[C@H](NC(=O)[C@H](CCC(N)=O)NC(=O)[C@@H](NC(=O)[C@H](CO)NC(=O)[C@H](CC(C)C)NC(=O)[C@H](CC(=O)O)NC(=O)[C@H](CO)NC(=O)[C@@H](NC(=O)[C@H](Cc1ccccc1)NC(=O)[C@@H](NC(=O)CNC(=O)[C@H](CCC(=O)O)NC(=O)C(C)(C)NC(=O)[C@@H](N)Cc1ccc(O)cc1)[C@@H](C)O)[C@@H](C)O)[C@@H](C)CC)C(=O)N[C@@H](CCC(=O)O)C(=O)N[C@@H](CCC(=O)O)C(=O)N[C@@H](CCCNC(=N)N)C(=O)N[C@@H](C)C(=O)N[C@@H](C)C(=O)NC1(C(=O)N[C@@H](CCC(=O)O)C(=O)N[C@@H](Cc2ccccc2)C(=O)N[C@H](C(=O)N[C@@H](CCC(=O)O)C(=O)N[C@@H](Cc2c[nH]c3ccccc23)C(=O)N[C@@H](CC(C)C)C(=O)N[C@@H](CCCCN)C(=O)N[C@@H](CC(N)=O)C(=O)N[C@H](C(=O)NCC(=O)N2CCC[C@H]2C(=O)N[C@@H](CO)C(=O)N[C@@H](CO)C(=O)NCC(=O)N[C@@H](C)C(=O)N2CCC[C@H]2C(=O)N2CCC[C@H]2C(=O)N2CCC[C@H]2C(=O)N[C@@H](CO)C(N)=O)[C@@H](C)O)[C@@H](C)CC)CCNCC1)C(=O)O [SEQ ID NO: 8, Y-Aib-E-G-T-F-T-S-D-L-S-I-Q-K(γE-x53)-E-E-R-A-A-Pip-E-F-I-E-W-L-K-N-T-G-P-S-S-G-A-P-P-P-S-NH2] (H-Y[Aib]EGTFTSDLSIQK([γGlu-Palmitoyl])EERAA[Api]EFIEWLKNTGPSSGAPPPS-NH2) | – | 16.3 pM | 93.0% | 93.0% | solubility [3, 6]: > 1000 µg/mL; solubility [3, 7]: > 1000 µg/mL
CCCCCCCCCCCCCCCCCC(=O)N[C@@H](CCC(=O)NCCCC[C@H](NC(=O)[C@H](CCC(N)=O)NC(=O)[C@H](CCCCN)NC(=O)[C@H](CO)NC(=O)[C@H](CC(C)C)NC(=O)[C@H](CC(=O)O)NC(=O)[C@H](CO)NC(=O)[C@@H](NC(=O)[C@H](Cc1ccccc1)NC(=O)[C@@H](NC(=O)CNC(=O)[C@H](CCC(N)=O)NC(=O)C(C)(C)NC(=O)[C@@H](N)Cc1ccc(O)cc1)[C@@H](C)O)[C@@H](C)O)C(=O)N[C@@H](CC(=O)O)C(=O)N[C@@H](CCC(=O)O)C(=O)N[C@@H](CCC(N)=O)C(=O)N[C@@H](CCCNC(=N)N)C(=O)N[C@@H](C)C(=O)N[C@@](C)(CCCCN)C(=O)N[C@@H](CCC(=O)O)C(=O)N[C@@H](Cc1ccccc1)C(=O)N[C@H](C(=O)N[C@@H](CCC(=O)O)C(=O)N[C@@H](Cc1c[nH]c2ccccc12)C(=O)N[C@@H](CC(C)C)C(=O)N[C@@H](CCCCN)C(=O)N[C@@H](CO)C(=O)NCC(=O)NCC(=O)N1CCC[C@H]1C(=O)N[C@@H](CO)C(=O)N[C@@H](CO)C(=O)NCC(=O)N[C@@H](C)C(=O)N1CCC[C@H]1C(=O)N1CCC[C@H]1C(=O)N1CCC[C@H]1C(=O)N[C@@H](CO)C(N)=O)[C@@H](C)CC)C(=O)O [SEQ ID NO: 12, Y-Aib-Q-G-T-F-T-S-D-L-S-K-Q-K(γE-x70)-D-E-Q-R-A-(S)MeLys-E-F-I-E-W-L-K-S-G-G-P-S-S-G-A-P-P-P-S-NH2] | – | – | 98.0% | 91.0% | solubility at 2 h [3, 6]: > 1000 µg/mL; solubility at 2 h [3, 7]: 983 µg/mL (≈ 211 µM); maximal effect, glucose reduction [5]: ~11 mmol/L
